From US7973047B2, “Beta-Secretase modulators and methods of use” (Amgen Inc., priority 2010, dated 2011) come the findings set out here.

pIC50: −log10 of the molar value.

In the first assay the test system is Aβ40 in conditioned medium of cells stably expressing Amyloid Precursor Protein (APP). Kind of assay: BACE cell-based assay: Aβ40 in conditioned medium by sandwich ELISA. As to conditions: cell based assay data of Table 4; unit inferred; read-out: Cell Assay. An outline of the steps: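 APP-stable cells grown 24 h in DMEM/10% FBS, then exposed to compounds for 24 h in a 10-point dose series starting at 100 or 10 μM, 0.1% DMSO final. Medium Aβ40 measured by pAb40/biotinylated 6E10 sandwich ELISA with Europium time-resolved fluorescence; IC50 from percent inhibition.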
For the compound `CC(=O)N[C@@H](Cc1cc(F)cc(F)c1)[C@H](O)CN[C@H]1CC2(CCC2)Oc2ncc(CC3CC3)cc21` [compound 687], the pIC50 is 8.11.

Regarding `CCC(CC)Cc1cnc2c(c1)[C@@H](NC[C@@H](O)[C@H](Cc1cc(F)cc(F)c1)NC(C)=O)CC1(CCC1)O2` [compound 691], the pIC50 is 7.02.

Regarding `CC(=O)N[C@@H](Cc1ccccc1)[C@H](O)CN[C@H]1CC(C)(C)Nc2ccc(CC(C)(C)C)cc21` [compound 692], the pIC50 was 7.51.

For the compound `CC(=O)N[C@@H](Cc1cc(F)cc(F)c1)[C@H](O)CN[C@H]1CC(C)(C)Nc2ccc(CC(C)(C)C)cc21` [compound 693], the pIC50 is 8.26.

Consider `CCCc1cnc2c(c1)[C@@H](NC[C@@H](O)[C@H](Cc1ccc(F)cc1)NC(C)=O)CC1(CCC1)O2` [compound 694], for which the pIC50 was 7.43.

Take `CC[C@H](C)Cc1cnc2c(c1)[C@@H](NC[C@@H](O)[C@H](Cc1ccc(F)cc1)NC(C)=O)CC1(CCC1)O2` [compound 695]: the pIC50 was 7.36.

Take `CC(=O)N[C@@H](Cc1ccc(F)cc1)[C@H](O)CN[C@H]1CC2(CCC2)Oc2ncc(C=C(C)C)cc21` [compound 696]: the pIC50 was 6.60.

As for `CC(=O)N[C@@H](Cc1ccc(F)cc1)[C@H](O)CN[C@H]1CC2(CCC2)Oc2ncc(C(=O)C(C)(C)C)cc21` [compound 697], the pIC50 is 6.56.

Regarding `[N-]=[N+]=NCC(=O)N[C@@H](Cc1ccccc1)[C@H](O)CN[C@H]1CC2(CCC2)Oc2ccc(Br)cc21` [compound 698], the pIC50 was 5.62.

Take `CC(=O)N[C@@H](Cc1cccc(C#N)c1)[C@H](O)CN[C@H]1CC2(CCC2)Oc2ncc(C(F)(F)F)cc21` [compound 699]: the pIC50 was 6.07.

For the compound `CC(=O)N[C@@H](Cc1cc(F)cc(F)c1)[C@H](O)CN[C@H]1CC2(CCC2)Oc2ncc(C(F)(F)F)cc21` [compound 700, N-((1S,2R)-1-((3,5-difluorophenyl)methyl)-2-hydroxy-3-(((4′S)-6′-(trifluoromethyl)-3′,4′-dihydrospiro[cyclobutane-1,2′-pyrano[2,3-b]pyridin]-4′-yl)amino)propyl)acetamide], the pIC50 is 5.92.

Turning to `CC(=O)N[C@@H](Cc1ccc(F)c(F)c1)[C@H](O)CN[C@H]1CC2(CCC2)Oc2ncc(CC(C)(C)C)cc21` [compound 701], the pIC50 was 8.63.

As for `CC(=O)N[C@@H](Cc1cccc(Cl)c1)[C@H](O)CN[C@H]1CC2(CCC2)Oc2ncc(CC(C)(C)C)cc21` [compound 702], the pIC50 was 8.91.

Turning to `CC(=O)N[C@@H](Cc1ccccc1F)[C@H](O)CN[C@H]1CC2(CCC2)Oc2ncc(CC(C)(C)C)cc21` [compound 703], the pIC50 was 8.29.

Regarding `CC(=O)N[C@@H](Cc1ccc(F)cc1F)[C@H](O)CN[C@H]1CC2(CCC2)Oc2ncc(CC(C)(C)C)cc21` [compound 704], the pIC50 is 7.73.

With `CC#CC[C@H](NC(C)=O)[C@H](O)CN[C@H]1CC2(CCC2)Oc2ncc(CC(C)(C)C)cc21` [compound 705, N-((1S)-1-((1R)-2-(((4′S)-6′-(2,2-dimethylpropyl)-3′,4′-dihydrospiro[cyclobutane-1,2′-pyrano[2,3-b]pyridin]-4′-yl)amino)-1-hydroxyethyl)-3-pentyn-1-yl)acetamide], the pIC50 was 6.36.

Turning to `CC(=O)N[C@@H](Cc1ccc(F)c(Cl)c1)[C@H](O)CN[C@H]1CC2(CCC2)Oc2ncc(CC(C)(C)C)cc21` [compound 706], the pIC50 was 8.51.

On to `CC(=O)N[C@@H](Cc1ccc(Cl)cc1)[C@H](O)CN[C@H]1CC2(CCC2)Oc2ncc(CC(C)(C)C)cc21` [compound 707], for which the pIC50 was 7.90.

As to `CC(=O)N[C@@H](Cc1ccccc1Cl)[C@H](O)CN[C@H]1CC2(CCC2)Oc2ncc(CC(C)(C)C)cc21` [compound 708], the pIC50 was 7.63.

Regarding `CC(=O)N[C@@H](Cc1ccc(F)c(N(C)C)c1)[C@H](O)CN[C@H]1CC2(CCC2)Oc2ncc(CC(C)(C)C)cc21` [compound 709], the pIC50 was 8.10.

In the case of `CCNc1cc(C[C@H](NC(C)=O)[C@H](O)CN[C@H]2CC3(CCC3)Oc3ncc(CC(C)(C)C)cc32)ccc1F` [compound 710], the pIC50 was 8.37.

With `CC(=O)N[C@@H](Cc1ccc(Cl)c(Cl)c1)[C@H](O)CN[C@H]1CC2(CCC2)Oc2ncc(CC(C)(C)C)cc21` [compound 711, N-((1S,2R)-1-((3,4-dichlorophenyl)methyl)-3-(((4′S)-6′-(2,2-dimethylpropyl)-3′,4′-dihydrospiro[cyclobutane-1,2′-pyrano[2,3-b]pyridin]-4′-yl)amino)-2-hydroxypropyl)acetamide], the pIC50 is 7.53.

The same assay, now with this note: cell based assay data, Table 4; unit inferred; read-out: Cell Assay.
Turning to `CC(=O)N[C@@H](Cc1ccc(OC(F)(F)F)cc1)[C@H](O)CN[C@H]1CC2(CCC2)Oc2ncc(CC(C)(C)C)cc21` [compound 712], the pIC50 was 7.19.

Turning to `CC(=O)N[C@@H](Cc1ccc(F)c(Cl)c1)[C@H](O)CN[C@H]1C[C@]2(C[C@H](C)C2)Oc2ncc(CC(C)(C)C)cc21` [compound 713, N-((1S,2R)-1-((3-chloro-4-fluorophenyl)methyl)-3-(((1s,3R,4′S)-6′-(2,2-dimethylpropyl)-3-methyl-3′,4′-dihydrospiro[cyclobutane-1,2′-pyrano[2,3-b]pyridin]-4′-yl)amino)-2-hydroxypropyl)acetamide], the pIC50 is 7.81.

With `CC(=O)N[C@@H](Cc1ccc(Cl)cc1)[C@H](O)CN[C@H]1C[C@]2(C[C@H](C)C2)Oc2ncc(CC(C)(C)C)cc21` [compound 714, N-((1S,2R)-1-((4-chlorophenyl)methyl)-3-(((1s,3R,4′S)-6′-(2,2-dimethylpropyl)-3-methyl-3′,4′-dihydrospiro[cyclobutane-1,2′-pyrano[2,3-b]pyridin]-4′-yl)amino)-2-hydroxypropyl)acetamide], the pIC50 is 7.57.

For `C=CCC[C@H](NC(C)=O)[C@H](O)CN[C@H]1CC2(CCC2)Oc2ncc(CC(C)(C)C)cc21` [compound 715], the pIC50 was 7.39.

Take `CC(=O)N[C@@H](Cc1ccc(Cl)c(C(F)(F)F)c1)[C@H](O)CN[C@H]1CC2(CCC2)Oc2ncc(CC(C)(C)C)cc21` [compound 716]: the pIC50 was 7.63.

As to `C=CCC[C@H](NC(C)=O)[C@H](O)CN[C@H]1C[C@]2(C[C@H](C)C2)Oc2ncc(CC(C)(C)C)cc21` [compound 717, N-((1S)-1-((1R)-2-(((1s,3R,4′S)-6′-(2,2-dimethylpropyl)-3-methyl-3′,4′-dihydrospiro[cyclobutane-1,2′-pyrano[2,3-b]pyridin]-4′-yl)amino)-1-hydroxyethyl)-4-penten-1-yl)acetamide], the pIC50 is 7.28.

Turning to `CC(=O)N[C@@H](Cc1cccc(C(F)(F)F)c1)[C@H](O)CN[C@H]1CC2(CCC2)Oc2ncc(CC(C)(C)C)cc21` [compound 718], the pIC50 was 8.40.

Regarding `CC(=O)N[C@@H](Cc1cccc(C(F)(F)F)c1)[C@H](O)CN[C@H]1CC2(CCC2)Oc2ncc(CC(C)C)cc21` [compound 719], the pIC50 was 8.03.

On to `CC(=O)N[C@@H](Cc1ccc(Cl)c(F)c1)[C@H](O)CN[C@H]1CC2(CCC2)Oc2ncc(CC(C)(C)C)cc21` [compound 720], for which the pIC50 was 8.07.

Consider `COc1cc(C[C@H](NC(C)=O)[C@H](O)CN[C@H]2CC3(CCC3)Oc3ncc(CC(C)(C)C)cc32)ccc1Cl` [compound 721], for which the pIC50 was 7.67.
